From ChEMBL document CHEMBL3297644, “Discovery of a 4-aryloxy-1H-pyrrolo[3,2-c]pyridine and a 1-aryloxyisoquinoline series of TRPA1 antagonists” (Bioorg Med Chem Lett, 2014)
Converted amounts (≈) assume the structure as drawn.

How the values were obtained:
[1] = molecular target: Transient receptor potential cation channel subfamily A member 1 (Homo sapiens, UniProt O75762); assay: Antagonist activity at human TRPA1 expressed in HEK293-TREx cells assessed as intracellular level after 48 of 72 hrs by Fluo-4 NW staining-based fluorescence analysis; format: cell-based
Chain of Transient receptor potential cation channel subfamily A member 1 (Homo sapiens, UniProt O75762) (O75762 whole entry): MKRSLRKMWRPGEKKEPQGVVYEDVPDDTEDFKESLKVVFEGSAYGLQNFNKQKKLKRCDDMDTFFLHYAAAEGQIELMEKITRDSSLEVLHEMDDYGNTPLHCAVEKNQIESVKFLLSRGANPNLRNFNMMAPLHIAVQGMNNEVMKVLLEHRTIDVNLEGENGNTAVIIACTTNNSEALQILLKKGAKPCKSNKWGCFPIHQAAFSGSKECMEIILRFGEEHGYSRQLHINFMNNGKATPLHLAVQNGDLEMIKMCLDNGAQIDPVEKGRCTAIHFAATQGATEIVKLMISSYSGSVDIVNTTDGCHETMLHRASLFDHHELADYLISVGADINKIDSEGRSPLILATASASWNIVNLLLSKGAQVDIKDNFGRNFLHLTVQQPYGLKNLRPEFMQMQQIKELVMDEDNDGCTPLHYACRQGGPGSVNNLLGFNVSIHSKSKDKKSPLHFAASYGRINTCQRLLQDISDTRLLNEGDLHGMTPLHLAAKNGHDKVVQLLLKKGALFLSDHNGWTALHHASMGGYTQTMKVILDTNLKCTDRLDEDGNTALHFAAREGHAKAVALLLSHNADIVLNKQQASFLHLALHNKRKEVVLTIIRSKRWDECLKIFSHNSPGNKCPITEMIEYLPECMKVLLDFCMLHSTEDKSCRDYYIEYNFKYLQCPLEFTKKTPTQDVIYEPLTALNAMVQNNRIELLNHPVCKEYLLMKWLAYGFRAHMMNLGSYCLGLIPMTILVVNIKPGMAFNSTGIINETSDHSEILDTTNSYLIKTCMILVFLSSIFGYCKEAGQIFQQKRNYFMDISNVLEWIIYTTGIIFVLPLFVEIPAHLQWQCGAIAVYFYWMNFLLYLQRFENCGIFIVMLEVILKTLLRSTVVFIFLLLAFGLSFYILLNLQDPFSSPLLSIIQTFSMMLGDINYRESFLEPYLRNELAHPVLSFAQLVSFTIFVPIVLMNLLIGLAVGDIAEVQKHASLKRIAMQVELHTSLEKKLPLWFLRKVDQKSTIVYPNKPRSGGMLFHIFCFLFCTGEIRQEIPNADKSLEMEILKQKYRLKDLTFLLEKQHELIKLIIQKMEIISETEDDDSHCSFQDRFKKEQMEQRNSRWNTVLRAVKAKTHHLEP

Cytochrome P450 2C9 = Cytochrome P450 2C9 (Homo sapiens, UniProt P11712); assay: Inhibition of CYP2C9 in human liver microsomes by LC-MS/MS/competitive screening assay; format: ADME
Chain of Cytochrome P450 2C9 (P11712 whole entry): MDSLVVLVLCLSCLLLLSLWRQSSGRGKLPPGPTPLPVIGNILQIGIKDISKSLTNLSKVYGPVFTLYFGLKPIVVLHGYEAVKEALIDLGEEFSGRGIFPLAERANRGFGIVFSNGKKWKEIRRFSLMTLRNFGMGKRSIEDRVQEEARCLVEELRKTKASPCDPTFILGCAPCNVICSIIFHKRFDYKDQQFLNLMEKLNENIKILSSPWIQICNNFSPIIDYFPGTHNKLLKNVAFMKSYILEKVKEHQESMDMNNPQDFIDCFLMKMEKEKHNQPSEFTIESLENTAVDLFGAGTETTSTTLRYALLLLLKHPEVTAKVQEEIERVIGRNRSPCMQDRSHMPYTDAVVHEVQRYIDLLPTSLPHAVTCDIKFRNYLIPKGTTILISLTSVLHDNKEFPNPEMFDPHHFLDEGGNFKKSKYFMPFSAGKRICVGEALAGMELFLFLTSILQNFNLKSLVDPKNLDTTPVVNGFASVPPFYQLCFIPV

[2] = molecular target: Transient receptor potential cation channel subfamily A member 1 (Rattus norvegicus, UniProt Q6RI86); assay: Antagonist activity at rat TRPA1 expressed in HEK293-TREx cells assessed as intracellular level after 48 of 72 hrs by Fluo-4 NW staining-based fluorescence analysis; format: cell-based
Chain of Transient receptor potential cation channel subfamily A member 1 (Rattus norvegicus, UniProt Q6RI86) (Q6RI86 whole entry): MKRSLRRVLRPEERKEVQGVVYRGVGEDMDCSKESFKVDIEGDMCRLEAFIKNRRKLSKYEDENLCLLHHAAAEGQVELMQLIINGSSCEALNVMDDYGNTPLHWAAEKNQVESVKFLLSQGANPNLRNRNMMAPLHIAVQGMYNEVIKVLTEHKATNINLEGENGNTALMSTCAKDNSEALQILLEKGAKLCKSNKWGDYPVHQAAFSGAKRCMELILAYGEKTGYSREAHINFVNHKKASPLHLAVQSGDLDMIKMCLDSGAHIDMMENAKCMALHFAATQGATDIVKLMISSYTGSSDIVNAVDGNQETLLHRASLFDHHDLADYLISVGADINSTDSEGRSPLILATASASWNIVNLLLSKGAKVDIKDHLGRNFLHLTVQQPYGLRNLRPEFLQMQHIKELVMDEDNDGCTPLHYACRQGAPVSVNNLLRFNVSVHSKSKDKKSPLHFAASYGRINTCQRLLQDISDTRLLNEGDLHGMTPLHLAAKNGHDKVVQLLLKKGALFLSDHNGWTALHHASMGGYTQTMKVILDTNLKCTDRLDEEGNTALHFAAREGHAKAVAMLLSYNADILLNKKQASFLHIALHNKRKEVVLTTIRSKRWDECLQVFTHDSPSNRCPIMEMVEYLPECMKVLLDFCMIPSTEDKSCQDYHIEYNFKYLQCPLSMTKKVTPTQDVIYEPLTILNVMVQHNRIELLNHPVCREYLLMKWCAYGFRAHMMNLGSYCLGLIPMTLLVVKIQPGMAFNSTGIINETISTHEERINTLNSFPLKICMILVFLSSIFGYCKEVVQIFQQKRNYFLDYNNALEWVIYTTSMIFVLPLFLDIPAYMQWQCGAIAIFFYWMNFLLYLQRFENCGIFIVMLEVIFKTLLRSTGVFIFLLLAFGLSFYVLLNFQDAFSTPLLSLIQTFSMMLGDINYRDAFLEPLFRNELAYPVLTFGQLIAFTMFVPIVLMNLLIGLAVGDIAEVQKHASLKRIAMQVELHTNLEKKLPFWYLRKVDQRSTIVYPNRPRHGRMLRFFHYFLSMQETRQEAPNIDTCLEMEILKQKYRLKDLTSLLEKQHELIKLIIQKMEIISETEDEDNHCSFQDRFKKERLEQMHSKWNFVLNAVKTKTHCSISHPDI

[3] = Chemical stability in buffer solution assessed as compound remaining at pH 1 at 70 degC after 24 hrs by HPLC/UV detection; format: physicochemical; conditions: read-out: Stability
Cytochrome P450 2D6 = Cytochrome P450 2D6 (Homo sapiens, UniProt P10635); assay: Inhibition of CYP2D6 in human liver microsomes by LC-MS/MS/competitive screening assay; format: ADME
Chain of Cytochrome P450 2D6 (P10635 whole entry): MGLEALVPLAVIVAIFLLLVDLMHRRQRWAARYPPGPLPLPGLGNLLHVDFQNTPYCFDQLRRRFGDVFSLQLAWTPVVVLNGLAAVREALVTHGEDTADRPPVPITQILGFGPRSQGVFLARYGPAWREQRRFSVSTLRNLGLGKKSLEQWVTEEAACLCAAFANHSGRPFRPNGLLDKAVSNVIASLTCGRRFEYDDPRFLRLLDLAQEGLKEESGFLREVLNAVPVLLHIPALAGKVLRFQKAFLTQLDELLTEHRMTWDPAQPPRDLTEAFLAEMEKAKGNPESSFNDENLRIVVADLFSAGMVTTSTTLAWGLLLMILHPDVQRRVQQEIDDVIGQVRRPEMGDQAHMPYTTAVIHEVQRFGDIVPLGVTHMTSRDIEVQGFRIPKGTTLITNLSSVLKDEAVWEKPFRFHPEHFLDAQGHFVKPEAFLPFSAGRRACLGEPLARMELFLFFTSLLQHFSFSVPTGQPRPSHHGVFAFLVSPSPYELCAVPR

Cytochrome P450 1A2 [4] = molecular target: T1, Cytochrome P450 1A2 (Homo sapiens, UniProt P05177); assay: Inhibition of CYP1A2 in human liver microsomes by LC-MS/MS/competitive screening assay; format: ADME
T1 sequence (P05177 whole entry): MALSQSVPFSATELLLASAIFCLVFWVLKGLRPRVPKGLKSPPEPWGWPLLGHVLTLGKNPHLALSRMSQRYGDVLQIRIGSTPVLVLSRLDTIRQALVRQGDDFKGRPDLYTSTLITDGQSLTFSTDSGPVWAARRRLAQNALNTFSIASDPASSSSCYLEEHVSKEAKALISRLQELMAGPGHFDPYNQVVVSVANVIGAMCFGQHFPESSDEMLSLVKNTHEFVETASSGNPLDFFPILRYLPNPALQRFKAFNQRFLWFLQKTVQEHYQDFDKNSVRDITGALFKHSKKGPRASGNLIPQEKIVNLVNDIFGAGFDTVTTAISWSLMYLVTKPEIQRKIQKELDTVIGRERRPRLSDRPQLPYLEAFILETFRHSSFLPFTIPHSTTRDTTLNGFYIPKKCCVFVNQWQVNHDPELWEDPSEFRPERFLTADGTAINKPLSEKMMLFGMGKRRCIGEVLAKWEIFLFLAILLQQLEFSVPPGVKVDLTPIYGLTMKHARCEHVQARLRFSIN

[5] = Intrinsic clearance in human liver microsomes at 1 uM in presence of NADPH; format: ADME; conditions: read-out: CLH
Cytochrome P450 1A2 [6] = molecular target: T1, Cytochrome P450 1A2; assay: Time dependent inhibition of CYP1A2 in human liver microsomes assessed as shift at 10 uM; format: ADME; conditions: pooled result: one value given for 4 cell lines, strains, targets or settings
[7] = Chemical stability in buffer solution assessed as compound remaining at pH 14 at 70 degC after 24 hrs by HPLC/UV detection; format: physicochemical; conditions: read-out: Stability
[8] = molecular target: Transient receptor potential cation channel subfamily V member 1 (Homo sapiens, UniProt Q8NER1); assay: Inhibition of human TRPV1
Chain of Transient receptor potential cation channel subfamily V member 1 (Q8NER1 whole entry): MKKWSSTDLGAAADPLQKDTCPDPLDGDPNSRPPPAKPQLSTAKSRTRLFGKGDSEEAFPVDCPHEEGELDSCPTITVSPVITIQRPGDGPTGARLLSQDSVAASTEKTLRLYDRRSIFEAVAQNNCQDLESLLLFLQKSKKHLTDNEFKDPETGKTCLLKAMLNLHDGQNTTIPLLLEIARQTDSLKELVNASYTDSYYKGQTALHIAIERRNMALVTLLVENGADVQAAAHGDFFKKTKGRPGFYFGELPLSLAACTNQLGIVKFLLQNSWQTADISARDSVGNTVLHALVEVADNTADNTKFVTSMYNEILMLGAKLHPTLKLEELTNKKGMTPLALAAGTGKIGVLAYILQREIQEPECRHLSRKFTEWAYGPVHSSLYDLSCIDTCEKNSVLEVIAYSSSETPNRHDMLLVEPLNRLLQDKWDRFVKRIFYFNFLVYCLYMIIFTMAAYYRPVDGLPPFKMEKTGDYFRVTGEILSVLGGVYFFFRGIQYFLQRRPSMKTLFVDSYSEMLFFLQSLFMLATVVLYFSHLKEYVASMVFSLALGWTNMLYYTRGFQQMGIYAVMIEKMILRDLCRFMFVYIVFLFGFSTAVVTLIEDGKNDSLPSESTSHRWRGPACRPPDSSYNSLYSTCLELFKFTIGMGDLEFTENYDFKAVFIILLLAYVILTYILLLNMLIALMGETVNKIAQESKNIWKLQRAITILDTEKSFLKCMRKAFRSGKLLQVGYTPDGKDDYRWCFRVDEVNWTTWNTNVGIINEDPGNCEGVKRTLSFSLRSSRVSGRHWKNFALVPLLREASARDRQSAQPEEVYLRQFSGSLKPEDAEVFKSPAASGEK

[9] = Apparent permeability across apical to basolateral side in human Caco2 cells at 10 uM at pH 7.4 by Transwell assay; format: ADME, cell-based; conditions: Caco-2, pH 7.4
[10] = Chemical stability in buffer solution assessed as compound remaining at pH 7 at 70 degC after 24 hrs by HPLC/UV detection; format: physicochemical; conditions: read-out: Stability
[11] = Thermodynamic solubility of the compound in buffer at pH 7.4 by HPLC/UV detection; format: physicochemical; conditions: read-out: Therm_solubility
Cytochrome P450 3A4 = Cytochrome P450 3A4 (Homo sapiens, UniProt P08684); assay: Inhibition of CYP3A4 in human liver microsomes by LC-MS/MS/competitive screening assay; format: ADME
Chain of Cytochrome P450 3A4 (P08684 whole entry): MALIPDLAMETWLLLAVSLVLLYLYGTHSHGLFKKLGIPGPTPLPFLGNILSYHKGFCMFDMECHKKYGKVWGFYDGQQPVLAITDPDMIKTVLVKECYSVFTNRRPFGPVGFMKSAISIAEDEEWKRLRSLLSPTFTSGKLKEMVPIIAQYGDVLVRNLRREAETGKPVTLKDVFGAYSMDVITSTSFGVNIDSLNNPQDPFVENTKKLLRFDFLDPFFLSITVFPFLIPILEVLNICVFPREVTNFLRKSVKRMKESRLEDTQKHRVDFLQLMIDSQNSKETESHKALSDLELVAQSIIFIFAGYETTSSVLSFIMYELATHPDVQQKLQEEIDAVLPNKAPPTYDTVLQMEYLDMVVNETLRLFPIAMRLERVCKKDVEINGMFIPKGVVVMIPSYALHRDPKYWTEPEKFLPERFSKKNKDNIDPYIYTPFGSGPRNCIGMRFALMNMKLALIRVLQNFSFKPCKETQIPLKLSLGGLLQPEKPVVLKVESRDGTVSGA

Cytochrome P450 2C19 = Cytochrome P450 2C19 (Homo sapiens, UniProt P33261); assay: Inhibition of CYP2C19 in human liver microsomes by LC-MS/MS/competitive screening assay; format: ADME
Chain of Cytochrome P450 2C19 (P33261 whole entry): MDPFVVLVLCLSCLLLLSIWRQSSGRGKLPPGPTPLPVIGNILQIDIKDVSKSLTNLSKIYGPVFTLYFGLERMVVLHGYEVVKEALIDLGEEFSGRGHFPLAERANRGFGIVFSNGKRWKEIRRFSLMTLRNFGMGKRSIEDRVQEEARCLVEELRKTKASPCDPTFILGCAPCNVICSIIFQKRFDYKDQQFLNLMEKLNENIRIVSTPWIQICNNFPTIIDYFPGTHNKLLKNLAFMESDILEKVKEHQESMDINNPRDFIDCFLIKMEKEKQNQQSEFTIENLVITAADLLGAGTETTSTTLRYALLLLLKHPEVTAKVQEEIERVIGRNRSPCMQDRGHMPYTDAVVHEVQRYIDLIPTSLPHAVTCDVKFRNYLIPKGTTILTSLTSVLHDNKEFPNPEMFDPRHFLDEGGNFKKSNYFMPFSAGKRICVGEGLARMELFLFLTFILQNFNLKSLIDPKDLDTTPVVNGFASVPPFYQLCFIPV

`Fc1ccc(Nc2ncnc3[nH]ccc23)cc1` gave an IC50 [1] of over 32 µM.
`Fc1ccc(Oc2ncnc3[nH]ccc23)cc1` showed an IC50 (Cytochrome P450 2C9) of over 20 µM, an IC50 [1] of 0.41 µM and an IC50 [2] of 3 µM. It also gave a remaining at 24 h [3] of 10%, an IC50 (Cytochrome P450 2D6) of over 20 µM and an IC50 (Cytochrome P450 1A2 [4]) of over 20 µM. The microsomal CLint at 1 µM [5] was 24 µL/min/mg, the TDI (Cytochrome P450 1A2 [6]) was 44% and the remaining at 24 h [7] was 100%. For the same compound, the IC50 [8] was over 10 µM, the Papp A→B at 10 µM [9] was 18 ×10⁻⁶ cm/s and the remaining at 24 h [10] was 100%. It also gave a solubility thermodynamic [11] of 33 µM (≈ 7.56 µg/mL), an IC50 (Cytochrome P450 3A4) of over 20 µM and an IC50 (Cytochrome P450 2C19) of over 20 µM.
Compound `Cc1ccc(Oc2ncnc3[nH]ccc23)c(C)c1` has an IC50 [1] of over 32 µM.
For `Cc1c[nH]c2ncnc(Oc3ccc(F)cc3F)c12`, the IC50 [1] was 0.65 µM.
For `Cc1ccccc1Oc1ncnc2[nH]ccc12`, the IC50 [1] was over 32 µM.
`Cn1ccc2c(Oc3ccc(F)cc3F)ncnc21` showed an IC50 [1] of over 32 µM.
For `Fc1cccc(Oc2ncnc3[nH]ccc23)c1`, the IC50 [1] was over 32 µM.
`Fc1ccc(Oc2ncnc3[nH]cc(I)c23)c(F)c1` gave an IC50 [1] of 2.5 µM.
With `CCc1c[nH]c2ncnc(Oc3ccc(F)cc3F)c12` the IC50 [1] was 1.6 µM.
In the case of `Fc1ccc(Oc2nccc3[nH]ccc23)c(F)c1`, the IC50 (Cytochrome P450 2C9) is reported as over 20 µM, the IC50 [1] is reported as 0.32 µM and the IC50 [2] is reported as 1.7 µM. For the same compound, the remaining at 24 h [3] was 100%, the IC50 (Cytochrome P450 2D6) was over 20 µM and the IC50 (Cytochrome P450 1A2 [4]) was over 20 µM. The microsomal CLint at 1 µM [5] was 45 µL/min/mg, the TDI (Cytochrome P450 1A2 [6]) was 42% and the remaining at 24 h [7] was 100%. It also gave an IC50 [8] of over 10 µM, a Papp A→B at 10 µM [9] of 33 ×10⁻⁶ cm/s and a remaining at 24 h [10] of 100%. It also gave a solubility thermodynamic [11] of 77 µM (≈ 19 µg/mL), an IC50 (Cytochrome P450 3A4) of over 20 µM and an IC50 (Cytochrome P450 2C19) of over 20 µM.
With `Cc1ccc(Oc2ncnc3[nH]ccc23)cc1` the IC50 [1] was over 32 µM.
Work on `Fc1ccc(Oc2ccnc3[nH]ccc23)c(F)c1` yielded an IC50 [1] of over 32 µM.
With `Cc1cc2c(Oc3ccc(F)cc3F)ncnc2[nH]1` the IC50 [1] was 1.2 µM.
For `Fc1ccc(Oc2ncnc3ccccc23)c(F)c1`, the IC50 [1] was over 32 µM.
With `N#Cc1ccc(Oc2ncnc3[nH]ccc23)cc1` the IC50 [1] was over 32 µM.
Work on `Fc1ccc(Oc2ncnc3cc[nH]c23)c(F)c1` yielded an IC50 [1] of over 32 µM.
Compound `Fc1ccc(Cc2ncnc3[nH]ccc23)cc1` has an IC50 [1] of over 32 µM.
In the case of `Fc1cccc(Oc2ncnc3[nH]ccc23)c1F`, the IC50 [1] is reported as 2.7 µM.
In the case of `COc1cc2ncnc(Oc3ccc(F)cc3F)c2cc1OC`, the IC50 [1] is reported as 1.2 µM.
Work on `COc1ccc2c(Oc3ccc(F)cc3F)nccc2c1` yielded an IC50 [1] of 1.3 µM.
In the case of `COc1ccc2c(Oc3ccc(F)cc3F)ncnc2c1`, the IC50 [1] is reported as 3 µM.
`Cc1[nH]c2ncnc(Oc3ccc(F)cc3F)c2c1C` gave an IC50 [1] of 2 µM.
`Fc1ccc(Oc2ncnc3occc23)c(F)c1` gave an IC50 [1] of over 32 µM.
In the case of `Fc1ccc(Oc2ncnc3[nH]ccc23)c(F)c1`, the IC50 [1] is reported as 0.71 µM.
Work on `COc1cc2ccnc(Oc3ccc(F)cc3F)c2cc1OC` yielded an IC50 [1] of 0.63 µM.
`COc1cc2ccnc(Oc3ccc(F)cc3)c2cc1OC` gave an IC50 (Cytochrome P450 2C9) of 1.9 µM, an IC50 [1] of 0.33 µM and an IC50 [2] of 1.8 µM. The IC50 (Cytochrome P450 2D6) was 1.9 µM, the IC50 (Cytochrome P450 1A2 [4]) was 1.9 µM and the microsomal CLint at 1 µM [5] was 110 µL/min/mg. The Papp A→B at 10 µM [9] was 6 ×10⁻⁶ cm/s, the solubility thermodynamic [11] was 8 µM (≈ 2.39 µg/mL) and the IC50 (Cytochrome P450 3A4) was 1.9 µM. The IC50 (Cytochrome P450 2C19) was 1.9 µM.
`Fc1cc(F)c(Oc2ncnc3[nH]ccc23)c(F)c1` showed an IC50 [1] of over 32 µM.
For `COc1ccc2ncnc(Oc3ccc(F)cc3F)c2c1`, the IC50 [1] was over 32 µM.
In the case of `Fc1ccc(Oc2nccc3occc23)c(F)c1`, the IC50 [1] is reported as 2.2 µM.
Compound `Fc1ccc(Oc2cccc3[nH]ccc23)c(F)c1` has an IC50 [1] of 1.1 µM.
With `Fc1ccc(Oc2nccc3[nH]ccc23)cc1` the IC50 (Cytochrome P450 2C9) was over 20 µM, the IC50 [1] was 0.31 µM and the IC50 [2] was 1.2 µM. The IC50 (Cytochrome P450 2D6) was over 20 µM, the IC50 (Cytochrome P450 1A2 [4]) was over 20 µM and the microsomal CLint at 1 µM [5] was 74 µL/min/mg. The TDI (Cytochrome P450 1A2 [6]) was 31%, the Papp A→B at 10 µM [9] was 12 ×10⁻⁶ cm/s and the solubility thermodynamic [11] was 24 µM (≈ 5.48 µg/mL). It also gave an IC50 (Cytochrome P450 3A4) of over 20 µM and an IC50 (Cytochrome P450 2C19) of over 20 µM.
With `Fc1ccc(Oc2ccncn2)c(F)c1` the IC50 [1] was over 32 µM.
Compound `Clc1ccc(Oc2ncnc3[nH]ccc23)cc1` has an IC50 [1] of over 32 µM.
With `Fc1ccc(Oc2ncnc3[nH]ccc23)cc1F` the IC50 [1] was 3 µM.
Compound `Fc1ccc(Oc2nccc3ccoc23)c(F)c1` has an IC50 [1] of 1.1 µM.
With `Fc1ccccc1Oc1ncnc2[nH]ccc12` the IC50 [1] was over 32 µM.
`Fc1ccc(Oc2ncnc3ccoc23)c(F)c1` showed an IC50 [1] of over 32 µM.
For `c1ccc(Oc2ncnc3[nH]ccc23)cc1`, the IC50 [1] was 3.2 µM.
`COc1ccc(Oc2ncnc3[nH]ccc23)cc1` showed an IC50 [1] of over 32 µM.
Work on `Fc1ccc(Oc2ncnc3[nH]cc(Cl)c23)c(F)c1` yielded an IC50 [1] of 0.63 µM.
`O=[N+]([O-])c1ccc(Oc2ncnc3[nH]ccc23)cc1` gave an IC50 [1] of over 32 µM.
Work on `Fc1ccc(Oc2nccc3ccccc23)c(F)c1` yielded an IC50 [1] of 3.1 µM.
